Values of other authors in publication PMC10797624, “Multitracer Approach to Understanding the Complexity of Reactive Astrogliosis in Alzheimer’s Brains” (ACS Chemical Neuroscience, 2023).

How the values were obtained:
[1] = system: [^3H]-BU99008 binding sites; set-up: method as in PMID 33888872; conditions: L-deprenyl vs [^3H]-BU99008
MAO-B = system: MAO-B; set-up: method as in PMID 32646880; conditions: small brain section autoradiography

SMILES: C#CCN(C)[C@H](C)Cc1ccccc1 [L-deprenyl]
- binding sites and affinities vs [^3H]-BU99008 [1]: multiple binding sites with pico- and micromolar affinities

SMILES: NCCNC(=O)c1ccc(Cl)cn1 [lazabemide]
- displacement of [^18F]-SMBT-1 binding (MAO-B): fully displaced
